The subject of the assay is Alternaria solani. The assay is described as follows: Activity against early blight of tomato caused by Alternaria solani, protective application. The format is in vivo. The following applies: 250 ppm active compound, sprayed to runoff one day before infection; visual rating after 5 days; untreated plants 100% infected. The method, then: The active compounds were formulated as a stock solution prepared using 0.25% by weight of active compound in acetone of DMSO. 1% by weight of the emulsifier Uniperol® EL (wetting agent having emulsifying and dispersant action based on ethoxylated alkylphenols) was added to this solution, and the solution was diluted with water to give the desired concentration.
Leaves of potted plants of the tomato cultivar: “Large Fruited St. Pierre” were sprayed to runoff point with an aqueous suspension having the concentration of active compound stated below. The next day, the leaves were infected with an aqueous spore suspension of Alternaria solani in a 2% biomalt solution having a density of 0.17×10^6 spores/ml. The plants were then placed in a water-vapor-saturated chamber at 20-22° C. After 5 days, the blight on the untreated but infected control plants had developed to such an extent that the infection could be determined visually in %.

Compound `CSc1nc2nc(C)c(-c3c(F)cc(F)cc3F)c(N3CCC(C)CC3)n2n1` [Example 3, 5-methyl-6-(2,4,6-trifluorophenyl)-7-(4-methylpiperidin-1-yl)-2-thiomethyl-[1,2,4]-triazolo[1,5-a]pyrimidine] had an infection of 20%.

The record behind these values is patent US20060079537A1, “2-Substitutued triazolopyrimidines, methods and intermediate products for the production thereof, the use of the same controlling pathogenic fungi, and agents containing said compounds” (priority 2002, published 2006).
